Substitutions are numbered along the chain they refer to. Numbers in names are those of the source. Where “and” joins values, the source holds several entries; their conditions need not be identical. Identical values can stand only once. Blank lines part the entries; values can stand above or below the molecule they belong to.
Columns and labels:
URAT1 K393H mutant [1] = target: T1, URAT1 K393H mutant (Homo sapiens, UniProt Q96S37, K393H); assay: 14C-uric acid binding assay with membrane protein; conditions: 1 μM BM, 1 μM verinurad, 10 μM lesinurad, 20 μM probenecid, 30 min, 25 μM 14C-uric acid
T1 sequence (Q96S37 1-553 K393H): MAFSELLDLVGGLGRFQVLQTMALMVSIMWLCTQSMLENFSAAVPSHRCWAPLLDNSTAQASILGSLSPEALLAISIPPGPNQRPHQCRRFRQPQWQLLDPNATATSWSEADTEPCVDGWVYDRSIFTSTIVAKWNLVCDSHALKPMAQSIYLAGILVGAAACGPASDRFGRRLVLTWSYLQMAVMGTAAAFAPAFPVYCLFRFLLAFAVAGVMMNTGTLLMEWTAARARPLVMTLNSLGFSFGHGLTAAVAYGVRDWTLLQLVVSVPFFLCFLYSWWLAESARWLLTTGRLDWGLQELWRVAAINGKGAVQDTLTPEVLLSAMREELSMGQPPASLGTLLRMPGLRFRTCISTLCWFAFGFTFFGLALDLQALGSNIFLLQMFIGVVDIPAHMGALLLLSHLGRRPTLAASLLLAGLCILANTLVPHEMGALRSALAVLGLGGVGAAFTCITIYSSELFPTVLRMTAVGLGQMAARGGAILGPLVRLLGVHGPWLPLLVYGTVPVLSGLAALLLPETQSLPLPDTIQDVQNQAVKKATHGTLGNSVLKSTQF

URAT1 K393R mutant [2] = target: T2, URAT1 K393R mutant (Homo sapiens, UniProt Q96S37, K393R); assay: 14C-uric acid binding assay with membrane protein; conditions: 1 μM BM, 1 μM verinurad, 10 μM lesinurad, 20 μM probenecid, 30 min, 25 μM 14C-uric acid
T2 sequence (Q96S37 1-553 K393R): T1 sequence (Q96S37 1-553 K393H) with H393R

URAT1 K393H mutant [3] = target: T1, URAT1 K393H mutant; assay: 14C-uric acid uptake assay in transfected HEK293 cells; assay type: cell-based
URAT1 K393E mutant = target: T3, URAT1 K393E mutant (Homo sapiens, UniProt Q96S37, K393E); assay: as above; assay type: cell-based
T3 sequence (Q96S37 1-553 K393E): T1 sequence (Q96S37 1-553 K393H) with H393E

wild-type hURAT1 = target: T4, wild-type hURAT1 (Homo sapiens, UniProt Q96S37); assay: cell-based
T4 sequence (Q96S37 1-553): T1 sequence (Q96S37 1-553 K393H) with H393K

URAT1 K393R mutant [4] = target: T2, URAT1 K393R mutant; assay: 14C-uric acid uptake assay in transfected HEK293 cells; assay type: cell-based
URAT1 K393A mutant = target: T5, URAT1 K393A mutant (Homo sapiens, UniProt Q96S37, K393A); assay: as above; assay type: cell-based
T5 sequence (Q96S37 1-553 K393A): T1 sequence (Q96S37 1-553 K393H) with H393A

URAT1 K393D mutant = target: T6, URAT1 K393D mutant (Homo sapiens, UniProt Q96S37, K393D); assay: as above; assay type: cell-based
T6 sequence (Q96S37 1-553 K393D): T1 sequence (Q96S37 1-553 K393H) with H393D

[5] = substrate: O=c1[nH]c(=O)c2[nH]c(=O)[nH]c2[nH]1; assay: Saturation kinetic experiment of 14C-uric acid uptake; assay type: cell-based, human; conditions: 10–200 μM 14C-uric acid, 20 min, HEK293, n = 3

Effect of inhibitor on 14C-uric acid binding compared with WT group (URAT1 K393H mutant [1]): poorly interfered
Effect of inhibitor on 14C-uric acid binding compared with WT group (URAT1 K393R mutant [2]): poorly interfered
Molecule: CCc1oc2ccccc2c1C(=O)c1cc(Br)c(O)c(Br)c1 [BM, benzbromarone]

Effect of inhibitor on 14C-uric acid binding compared with WT group (URAT1 K393H mutant [1]): similar
Effect of inhibitor on 14C-uric acid binding compared with WT group (URAT1 K393R mutant [2]): similar
Molecule: O=C(O)CSc1nnc(Br)n1-c1ccc(C2CC2)c2ccccc12 [lesinurad]

Effect of inhibitor on 14C-uric acid binding compared with WT group (URAT1 K393H mutant [1]): similar
Effect of inhibitor on 14C-uric acid binding compared with WT group (URAT1 K393R mutant [2]): similar
Molecule: CCCN(CCC)S(=O)(=O)c1ccc(C(=O)O)cc1 [probenecid]

IC50 (URAT1 K393H mutant [3]): 490 ± 240 nM
IC50 (URAT1 K393E mutant): 360 ± 220 nM
IC50 (wild-type hURAT1): 290 ± 120 nM
Effect of inhibitor on 14C-uric acid binding compared with WT group (URAT1 K393H mutant [1]): similar
IC50 (URAT1 K393R mutant [4]): 310 ± 290 nM
IC50 (URAT1 K393A mutant): 420 ± 260 nM
Effect of inhibitor on 14C-uric acid binding compared with WT group (URAT1 K393R mutant [2]): similar
IC50 (URAT1 K393D mutant): 440 ± 210 nM
Molecule: CC(C)(Sc1ccncc1-c1ccc(C#N)c2ccccc12)C(=O)O [verinurad]

B1: hURAT1 K393R mutant (Homo sapiens; K393R) (protein)
chain: T1 sequence (Q96S37 1-553 K393H) with H393R
Km ([5]; other: K393R): 128.11 μM and 101.23 ± 26.11 (ns) μM
Vmax ([5]; other: K393R): 557.21 ± 89.21(ns)

B2: hURAT1 WT (Homo sapiens) (protein)
chain: T1 sequence (Q96S37 1-553 K393H) with H393K
Km ([5]; other: WT): 106.45 ± 16.45 µM
Vmax ([5]; other: WT): 0.000654 µmol/min/mg

B3: hURAT1 K393E mutant (Homo sapiens; K393E) (protein)
chain: T1 sequence (Q96S37 1-553 K393H) with H393E
Km ([5]; other: K393E): 201.23 ± 23.65 µM
Vmax ([5]; other: K393E): 0.000424 µmol/min/mg

B4: hURAT1 K393A mutant (Homo sapiens; K393A) (protein)
chain: T1 sequence (Q96S37 1-553 K393H) with H393A
Km ([5]; other: K393A): 172.12 ± 27.12 µM
Vmax ([5]; other: K393A): 0.000464 µmol/min/mg

B5: hURAT1 K393D mutant (Homo sapiens; K393D) (protein)
chain: T1 sequence (Q96S37 1-553 K393H) with H393D
Km ([5]; other: K393D): 165.36 ± 23.41 µM
Vmax ([5]; other: K393D): 0.000497 µmol/min/mg

B6: hURAT1 K393H mutant (Homo sapiens; K393H) (protein)
chain: T1 sequence (Q96S37 1-553 K393H)
Km ([5]; other: K393H): 101.23 μM and 128.11 ± 19.12 (ns) μM
Vmax ([5]; other: K393H): 0.000447 µmol/min/mg

Reference: paper PMC9521027 (ACS Omega, 2022)
